{"source": "patent US20240398807A1", "about": "“COMPOSITIONS AND METHODS OF TREATING KIDNEY DISEASE AND FIBROSIS” (Mitokinin, Inc., priority 2020, published 2024)", "key": {"[1]": {"tested_on": "mitochondrial DNA", "test": "kidney mtDNA/nucDNA ratio by qPCR", "type": "in vivo", "description": "A small piece of frozen kidney tissue (˜12 mg) was homogenized and DNA extracted using the Qiagen QIAamp DNA mini kit. mtDNA/nucDNA ratio was determined using a qPCR protocol from the Aurwex lab (Quiros et al, 2017), using the following primers: 16S rRNA 5′-[…]-3′(SEQ ID NO:11) and 5′-[…]-3′ (SEQ ID NO:12); ND1 5′-[…]-3′ (SEQ ID NO: 13) and: 5′-[…]-3 (SEQ ID NO:14); HK2 5′-[…]-3′ (SEQ ID NO:15) and 5′-[…]-3′ (SEQ ID NO:16).\nReferring to FIG. 4, mice (C57Bl/6) were challenged with a single intraperitoneal dose of 10 mg/kg cisplatin. Tissue lysates were examined for mitochondrial gene ND1 and nuclear gene beta actin by quantitative PCR.\nReferring to FIG. 12, mice (C57Bl/6) were challenged with a single intraperitoneal dose of 10 mg/kg cisplatin and dosed by oral gavage, once per day (QD) for seven days with 35985."}, "[2]": {"tested_on": "pS65-Ub", "test": "pS65-Ub ELISA of kidney mitochondrial preparations", "type": "in vivo, mice (C57Bl/6)", "conditions": "single i.p. 30 mg/kg cisplatin", "description": "Kidneys were removed from -80° C. and minced on an ice block. Minced tissues were transferred to a dounce homogenizer and homogenized with 20× strokes of the 'loose' pestle and 20× strokes of the 'tight' pestle using 1 ml ul of cold mitochondrial isolation buffer (MIB, 50 mM Tris-HCl (pH 7.5), 70 mM sucrose, 210 mM sorbitol, 1 mM EDTA, 1 mM EGTA, 100 mM chloroacetamide, HaltTM Protease and Phosphatase Inhibitor Cocktail, EDTA-free (100×) (PI), 10 μM PR619). Kidney homogenate was transferred to a 1.5 ml Eppendorf tube and were centrifuged at 300×g for 5 min at 4° C. Approximately 800 ul of supernatant was transferred to a new 1.5 ml microcentrifuge tube. The supernatant (cytosol+mitochondria) was transferred to a new tube and centrifuged at 10,000 g for 20 min at 4° C. to pellet the mitochondrial fraction. After removing residual supernatant, mitochondria were resuspended in lysis buffer (100 mM Bicine pH 8.0, 0.27M Sucrose, 1 mM EDTA, 1 mM EGTA, 5 mM Na4P2O7, 100 mM Tris pH 7.5, 1% Triton X-100), containing benzonase (1:1000), HALT protease/phosphatase inhibitors (1:100), and PR-619 de-ubiquitinase inhibitor (1:1000). […] For peroxidase reaction, 50 ul of TMB reagent (Pierce #34029) was added to the wells after washing and wells were monitored closely for reaction development. […] Absorbance was measured at 450 nm using […] SpectraMax). […]"}, "[3]": {"tested_on": "PINK1", "test": "Western blot for PINK1 in kidney mitochondrial preparations", "type": "in vivo, mice (C57Bl/6)", "conditions": "C57Bl/6; single i.p. 30 mg/kg cisplatin; FIG. 3B", "description": "Kidneys were removed from -80° C. and minced on an ice block. Minced tissues were transferred to a dounce homogenizer and homogenized with 20× strokes of the 'loose' pestle and 20× strokes of the 'tight' pestle using 1 ml ul of cold mitochondrial isolation buffer (MIB, 50 mM Tris-HCl (pH 7.5), 70 mM sucrose, 210 mM sorbitol, 1 mM EDTA, 1 mM EGTA, 100 mM chloroacetamide, HaltTM Protease and Phosphatase Inhibitor Cocktail, EDTA-free (100×) (PI), 10 μM PR619). Kidney homogenate was transferred to a 1.5 ml Eppendorf tube and were centrifuged at 300×g for 5 min at 4° C. Approximately 800 ul of supernatant was transferred to a new 1.5 ml microcentrifuge tube. The supernatant (cytosol+mitochondria) was transferred to a new tube and centrifuged at 10,000 g for 20 min at 4° C. to pellet the mitochondrial fraction. […] The total protein concentration of kidney mitopreps was measured with the Thermo Scientific Pierce BCA Protein Assay Kit (Thermo Scientific), according to its product manual. […] For each lane of a 26 well gel (4-20% CriterionTM Tris-HCl Protein Gel, Bio-Rad Laboratories), 10 μg per sample was loaded and analyzed by Western Blotting. Indicated bands were quantified using ImageStudio Lite and normalized to beta actin band intensity. […]"}, "[4]": {"tested_on": "HeLa cells expressing a mitophagy indicator (mtKeima) protein", "test": "mitophagy in HeLa cells expressing mtKeima, FACS", "type": "cell-based", "conditions": "1 mM of FCCP and Oligomycin then specified dose of compound, FIG. 1", "description": "Briefly, HeLa cells expressing a mitophagy indicator (mtKeima) protein were treated with […] of FCCP and Oligomycin followed by the specified dose of compound, then analyzed by FACS to quantify the percentage of cells undergoing mitophagy."}, "[5]": {"tested_on": "HeLa cells expressing a YFP-tagged Parkin", "test": "Parkin recruitment to mitochondria, longitudinal imaging", "type": "cell-based", "conditions": "1 mM of FCCP and Oligomycin then specified dose, percentage of cells with Parkin recruited at 60 minutes, FIG. 2", "description": "HeLa cells expressing a YFP-tagged Parkin were treated with […] of FCCP and Oligomycin followed by the specified dose of compound, then analyzed by longitudinal imaging. Percentage of cells with Parkin recruited to mitochondria at 60 minutes is shown."}, "[6]": {"test": "body weight loss in cisplatin-challenged mice", "type": "in vivo, mice (C57Bl/6)", "description": "Referring to FIG. 9, mice (C57Bl/6) were challenged with a single intraperitoneal dose of 10 mg/kg cisplatin or saline (not shown) and dosed by oral gavage once per day (QD) with 35985."}, "[7]": {"tested_on": "KIM-1 (kidney-injury marker 1)", "test": "urine KIM-1 ELISA in cisplatin-challenged mice", "type": "in vivo, mice (C57Bl/6)", "conditions": "for KIM-1 (urine biomarker for kidney injury): single i.p. 10 mg/kg cisplatin, day 3 post-challenge", "description": "Urine was collected from scruffed mice (serial collection) or directly from bladder using insulin syringe during harvest (terminal collection). KIM-1 was measured in mouse urine using R&D System's Mouse TIM-1/KIM-1/HAVCR DuoSet ELISA following manufacturer's published protocol.\nReferring to FIG. 10, mice (C57Bl/6) were challenged with a single intraperitoneal dose of 10 mg/kg cisplatin or saline (not shown) and dosed by oral gavage once per day (QD) with 35985."}, "[8]": {"tested_on": "GDF15", "test": "serum GDF15 ELISA in cisplatin-challenged mice", "type": "in vivo, mice (C57Bl/6)", "conditions": "single i.p. 10 mg/kg cisplatin; oral gavage QD 20 mg/kg or 50 mg/kg; after 7 days; FIG. 13", "description": "For tissue harvest, mice were anesthetized using isofluorane. Cardiac puncture was performed to withdraw blood for serum collection. Blood was deposited into serum separator tubes and left undisturbed for 30 min to 1 hr at room temperature to allow clotting prior to serum separation by centrifugation for 2 min (10,000 g, room temperature). Collected serum was transferred to Eppendorf tubes and frozen on dry ice. After cervical dislocation, left and right kidneys were extracted and frozen until analysis.\nReferring to FIG. 13, mice (C57Bl/6) were challenged with a single intraperitoneal dose of 10 mg/kg cisplatin or saline and dosed by oral gavage once per day (QD) with 20 mg/kg or 50 mg/kg 35985."}}, "note": "Entries after “also recorded” stand apart in the source; their conditions may differ."}
{"smiles": "N.N.[Cl][Pt][Cl]", "note": "[cisplatin, reference compound]", "values": [{"measurement": "mitochondrial DNA (mtDNA/nucDNA ratio; ND1 vs beta actin)", "setting": "[1]; C57Bl/6, single i.p. 10 mg/kg cisplatin, FIG. 4", "result": "induces reduction in mtDNA/nucDNA ratio; also recorded: significant reduction in mitochondrial DNA"}, {"measurement": "pS65-Ub in kidney mitochondria", "setting": "[2]; C57Bl/6, FIG. 3A", "result": "pS65-Ub increase"}, {"measurement": "kidney mitochondria pS65-Ub levels", "setting": "[2]; PINK1 KO mice, different times, FIG. 6, 30 mg/kg", "result": "does not induce a change in pS65 Ubiquitin; also recorded: remains unchanged"}, {"measurement": "PINK1 protein in kidney mitochondria", "setting": "[3]", "result": "induction of PINK1"}]}
{"smiles": "FC(F)(F)c1cc2c(N[C@@H]3CCCc4ccccc43)ncnc2[nH]1", "note": "[compound 35985]", "values": [{"measurement": "percentage of cells undergoing mitophagy", "setting": "[4]", "result": "induce mitophagy in a dose dependent manner; also recorded: dose responsive increase in the percentage of cells undergoing mitophagy"}, {"measurement": "rate of Parkin recruitment to mitochondria", "setting": "[5]", "result": "accelerate recruitment of Parkin to mitochondria; also recorded: dose responsive increase in the rate of Parkin recruitment to mitochondria"}, {"measurement": "cisplatin-mediated weight-loss", "setting": "[6]; single i.p. 10 mg/kg cisplatin, 35985 oral gavage QD, FIG. 9, 10 mg/kg", "result": "ameliorates cisplatin-induced body-weight loss; also recorded: dose-dependent rescue of cisplatin-mediated weight-loss"}, {"measurement": "KIM-1 (urine biomarker for kidney injury)", "setting": "[7]; 35985 oral gavage QD, FIG. 10", "result": "reduces kidney damage in cisplatin challenged mice; also recorded: dose-dependent rescue of KIM-1"}, {"measurement": "cisplatin-mediated mitochondrial DNA loss", "setting": "[1]; single i.p. 10 mg/kg cisplatin, oral gavage QD seven days, at 10 mg/kg and above, FIG. 12", "result": "ameliorates mtDNA loss upon cisplatin challenge; also recorded: rescued cisplatin-mediated mitochondrial DNA loss"}, {"measurement": "mitochondrial-stress serum biomarker GDF15 (ELISA)", "setting": "[8]", "result": "reduces serum GDF15 levels; also recorded: reduced mitochondrial-stress serum biomarker GDF15"}]}
{"smiles": "c1ccc2c(c1)OC[C@@H](N1CCOCC1)[C@@H]2Nc1ncnc2[nH]c(C3CC3)cc12", "note": "[compound 40180]", "values": [{"measurement": "percentage of cells undergoing mitophagy", "setting": "[4]", "result": "induce mitophagy in a dose dependent manner; also recorded: dose responsive increase in the percentage of cells undergoing mitophagy"}, {"measurement": "rate of Parkin recruitment to mitochondria", "setting": "[5]", "result": "accelerate recruitment of Parkin to mitochondria; also recorded: dose responsive increase in the rate of Parkin recruitment to mitochondria"}, {"measurement": "KIM-1 (urine biomarker for kidney injury)", "setting": "[7]; 40180 oral gavage QD, FIG. 14", "result": "reduces KIM-1; also recorded: dose-dependent rescue of KIM-1"}]}
{"smiles": "FC(F)(F)c1cc2c(N[C@H]3c4ccccc4CC[C@@H]3C3C[C@@H]4COC[C@H]4C3)ncnc2[nH]1", "note": "[compound 40270]", "values": [{"measurement": "kidney dysfunction, KIM-1 levels", "setting": "[7]; single dose cisplatin 10 mg/kg i.p., 53 mg/kg p.o., b.i.d., FIG. 17", "result": "reduces KIM-1; also recorded: Dysfunction was ameliorated"}]}
{"smiles": "C[C@@H]1CN([C@@H]2COc3cc(F)ccc3[C@H]2Nc2ncnc3[nH]c(C(F)(F)F)cc23)CCO1", "note": "[compound 41088]", "values": [{"measurement": "cisplatin-induced weight loss", "setting": "[6]; single dose cisplatin 10 mg/kg i.p., p.o., q.d. at 1.56, 3.13, 6.25 and 12.5 mg/kg, FIG. 18", "result": "reduces weight loss; also recorded: Weight loss was ameliorated"}]}
